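These data come from cells grown in 96-well plates and exposed to compound for 48 hours at five concentrations. TGI: concentration producing complete growth inhibition.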
Columns and labels:
Assay in all cases: NCI tumour cell line growth inhibition, 48 h
UO-31 renal = test system: UO-31 renal
ACHN renal = test system: ACHN renal
MOLT-4 leukemia = test system: MOLT-4 leukemia
RXF 393 renal = test system: RXF 393 renal
SK-OV-3 ovarian = test system: SK-OV-3 ovarian
SK-MEL-2 melanoma = test system: SK-MEL-2 melanoma
HOP-92 NSCLC = test system: HOP-92 NSCLC
SF-539 CNS = test system: SF-539 CNS
NCI-H460 lung = test system: NCI-H460 lung
HL-60(TB) leukemia = test system: HL-60(TB) leukemia
A498 renal = test system: A498 renal
SW-620 colon = test system: SW-620 colon
IGROV1 ovarian = test system: IGROV1 ovarian
HCC-2998 colon = test system: HCC-2998 colon
UACC-257 melanoma = test system: UACC-257 melanoma
786-0 renal = test system: 786-0 renal
OVCAR-4 ovarian = test system: OVCAR-4 ovarian
A549 NSCLC = test system: A549 NSCLC
TK-10 renal = test system: TK-10 renal
NCI/ADR-RES ovarian = test system: NCI/ADR-RES ovarian
SK-MEL-28 melanoma = test system: SK-MEL-28 melanoma
NCI-H23 lung = test system: NCI-H23 lung
CCRF-CEM leukemia = test system: CCRF-CEM leukemia
KM12 colon = test system: KM12 colon
M14 melanoma = test system: M14 melanoma
HCT-15 colon = test system: HCT-15 colon
OVCAR-8 ovarian = test system: OVCAR-8 ovarian
MCF7 breast = test system: MCF7 breast
MALME-3M melanoma = test system: MALME-3M melanoma
SNB-75 CNS = test system: SNB-75 CNS
MDA-N = test system: MDA-N
LOX IMVI melanoma = test system: LOX IMVI melanoma
HS 578T breast = test system: HS 578T breast
SF-295 CNS = test system: SF-295 CNS
U251 CNS = test system: U251 CNS
BT-549 breast = test system: BT-549 breast
K-562 leukemia = test system: K-562 leukemia
CAKI-1 renal = test system: CAKI-1 renal
HOP-62 NSCLC = test system: HOP-62 NSCLC
EKVX NSCLC = test system: EKVX NSCLC
NCI-H226 lung = test system: NCI-H226 lung
SK-MEL-5 melanoma = test system: SK-MEL-5 melanoma
PC-3 prostate = test system: PC-3 prostate
COLO 205 colon = test system: COLO 205 colon
HT29 colon = test system: HT29 colon
SN12C renal = test system: SN12C renal
UACC-62 melanoma = test system: UACC-62 melanoma
SR leukemia = test system: SR leukemia
OVCAR-5 ovarian = test system: OVCAR-5 ovarian
OVCAR-3 ovarian = test system: OVCAR-3 ovarian
MDA-MB-231 breast = test system: MDA-MB-231 breast
HCT-116 colon = test system: HCT-116 colon
SNB-19 CNS = test system: SNB-19 CNS
NCI-H522 lung = test system: NCI-H522 lung
SF-268 CNS = test system: SF-268 CNS
T-47D breast = test system: T-47D breast
DU-145 prostate = test system: DU-145 prostate
RPMI-8226 leukemia = test system: RPMI-8226 leukemia

With CC1(C)N(OC2CCCCO2)C(c2ccccc2)C(c2ccccc2)=[N+]1[O-] (centres undefined) the TGI (UO-31 renal) was > 100 µM, the TGI (ACHN renal) was > 100 µM and the TGI (MOLT-4 leukemia) was > 100 µM. For the same compound, the TGI (RXF 393 renal) was > 100 µM, the TGI (SK-OV-3 ovarian) was > 100 µM and the TGI (SK-MEL-2 melanoma) was > 100 µM. For the same compound, the TGI (HOP-92 NSCLC) was > 100 µM, the TGI (SF-539 CNS) was > 100 µM and the TGI (NCI-H460 lung) was > 100 µM. For the same compound, the TGI (HL-60(TB) leukemia) was > 100 µM, the TGI (A498 renal) was > 100 µM and the TGI (SW-620 colon) was > 100 µM. For the same compound, the TGI (IGROV1 ovarian) was > 100 µM, the TGI (HCC-2998 colon) was > 100 µM and the TGI (UACC-257 melanoma) was > 100 µM. For the same compound, the TGI (786-0 renal) was > 100 µM, the TGI (OVCAR-4 ovarian) was > 100 µM and the TGI (A549 NSCLC) was > 100 µM. For the same compound, the TGI (TK-10 renal) was > 100 µM, the TGI (NCI/ADR-RES ovarian) was > 100 µM and the TGI (SK-MEL-28 melanoma) was > 100 µM. For the same compound, the TGI (NCI-H23 lung) was > 100 µM, the TGI (CCRF-CEM leukemia) was > 100 µM and the TGI (KM12 colon) was > 100 µM. For the same compound, the TGI (M14 melanoma) was > 100 µM, the TGI (HCT-15 colon) was > 100 µM and the TGI (OVCAR-8 ovarian) was > 100 µM. For the same compound, the TGI (MCF7 breast) was > 100 µM, the TGI (MALME-3M melanoma) was > 100 µM and the TGI (SNB-75 CNS) was > 100 µM. The TGI (MDA-N) was > 100 µM, the TGI (LOX IMVI melanoma) was > 100 µM and the TGI (HS 578T breast) was > 100 µM. The TGI (SF-295 CNS) was > 100 µM, the TGI (U251 CNS) was > 100 µM and the TGI (BT-549 breast) was > 100 µM. The TGI (K-562 leukemia) was > 100 µM, the TGI (CAKI-1 renal) was > 100 µM and the TGI (HOP-62 NSCLC) was > 100 µM. For the same compound, the TGI (EKVX NSCLC) was > 100 µM, the TGI (NCI-H226 lung) was > 100 µM and the TGI (SK-MEL-5 melanoma) was > 100 µM. The TGI (PC-3 prostate) was > 100 µM, the TGI (COLO 205 colon) was > 100 µM and the TGI (HT29 colon) was > 100 µM. The TGI (SN12C renal) was > 100 µM, the TGI (UACC-62 melanoma) was > 100 µM and the TGI (SR leukemia) was > 100 µM. The TGI (OVCAR-5 ovarian) was > 100 µM, the TGI (OVCAR-3 ovarian) was > 100 µM and the TGI (MDA-MB-231 breast) was > 100 µM. The TGI (HCT-116 colon) was > 100 µM and the TGI (SNB-19 CNS) was > 100 µM.

CC1=NN(c2nc(N)nc(C(C)Sc3cc(Cl)c(C)cc3S(N)(=O)=O)n2)C(C)(C)C1 (centres undefined) was tested, and the TGI (UO-31 renal) was > 10 µM, the TGI (ACHN renal) was > 10 µM and the TGI (MOLT-4 leukemia) was > 10 µM. The TGI (RXF 393 renal) was > 10 µM, the TGI (SK-OV-3 ovarian) was > 10 µM and the TGI (NCI-H522 lung) was > 10 µM. The TGI (SK-MEL-2 melanoma) was > 10 µM, the TGI (HOP-92 NSCLC) was > 10 µM and the TGI (SF-539 CNS) was > 10 µM. The TGI (NCI-H460 lung) was > 10 µM, the TGI (HL-60(TB) leukemia) was > 10 µM and the TGI (A498 renal) was > 10 µM. The TGI (SW-620 colon) was > 10 µM, the TGI (IGROV1 ovarian) was > 10 µM and the TGI (HCC-2998 colon) was > 10 µM. The TGI (UACC-257 melanoma) was > 10 µM, the TGI (786-0 renal) was > 10 µM and the TGI (SF-268 CNS) was > 10 µM. For the same compound, the TGI (OVCAR-4 ovarian) was > 10 µM, the TGI (A549 NSCLC) was > 10 µM and the TGI (TK-10 renal) was > 10 µM. The TGI (NCI/ADR-RES ovarian) was > 10 µM, the TGI (SK-MEL-28 melanoma) was > 10 µM and the TGI (NCI-H23 lung) was > 10 µM. For the same compound, the TGI (CCRF-CEM leukemia) was > 10 µM, the TGI (KM12 colon) was > 10 µM and the TGI (M14 melanoma) was > 10 µM. For the same compound, the TGI (HCT-15 colon) was > 10 µM, the TGI (OVCAR-8 ovarian) was > 10 µM and the TGI (MCF7 breast) was > 10 µM. The TGI (MALME-3M melanoma) was > 10 µM, the TGI (SNB-75 CNS) was > 10 µM and the TGI (MDA-N) was > 10 µM. For the same compound, the TGI (LOX IMVI melanoma) was > 10 µM, the TGI (HS 578T breast) was > 10 µM and the TGI (SF-295 CNS) was > 10 µM. The TGI (U251 CNS) was > 10 µM, the TGI (BT-549 breast) was > 10 µM and the TGI (K-562 leukemia) was > 10 µM. For the same compound, the TGI (T-47D breast) was > 10 µM, the TGI (CAKI-1 renal) was > 10 µM and the TGI (HOP-62 NSCLC) was > 10 µM. For the same compound, the TGI (EKVX NSCLC) was > 10 µM, the TGI (NCI-H226 lung) was > 10 µM and the TGI (SK-MEL-5 melanoma) was > 10 µM. For the same compound, the TGI (PC-3 prostate) was > 10 µM, the TGI (COLO 205 colon) was > 10 µM and the TGI (HT29 colon) was > 10 µM. For the same compound, the TGI (SN12C renal) was > 10 µM, the TGI (SR leukemia) was > 10 µM and the TGI (OVCAR-5 ovarian) was > 10 µM. For the same compound, the TGI (DU-145 prostate) was > 10 µM, the TGI (OVCAR-3 ovarian) was > 10 µM and the TGI (HCT-116 colon) was > 10 µM. For the same compound, the TGI (SNB-19 CNS) was > 10 µM and the TGI (RPMI-8226 leukemia) was > 10 µM.

Reference: PubChem BioAssay (NCI)
